# Test: xn = mol fraction of the nth substance listed
smiles,measurement,setting,value
CCCC[P+](CCCC)(CCCC)CCCC.F[B-](F)(F)F + C1COCO1,speed of sound,"298.15 K, 100 kPa, x1 = 0.002",1341.9 m/s
same,speed of sound,"298.15 K, 100 kPa, x1 = 0.0052",1400.4 m/s
same,speed of sound,"298.15 K, 100 kPa, x1 = 0.0073",1474.1 m/s
CCCO + C=CC[n+]1ccn(C)c1.O=S(=O)([N-]S(=O)(=O)C(F)(F)F)C(F)(F)F,viscosity,"298.15 K, 100 kPa, x2 = 0",1.91 mPa·s
CC[n+]1ccn(C)c1.[Cl-] + CC#N,viscosity,"373 K, 100 kPa, x2 = 0",36 mPa·s
same,viscosity,"373 K, 100 kPa, x2 = 0.158",19 mPa·s
same,viscosity,"373 K, 100 kPa, x2 = 0.472",7 mPa·s
same,viscosity,"373 K, 100 kPa, x2 = 0.781",3 mPa·s
CCCC[n+]1ccn(C)c1.F[P-](F)(F)(F)(F)F + CC(C)=O,electrical conductivity,"296.15 K, 101 kPa, x2 = 0.3522",0.84 S/m
same,electrical conductivity,"296.15 K, 101 kPa, x2 = 0.8801",3.91 S/m
same,electrical conductivity,"296.15 K, 101 kPa, x2 = 0.9514",2.99 S/m
same,electrical conductivity,"296.15 K, 101 kPa, x2 = 0.9778",1.73 S/m
CCCCCCCC[N+](C)(CCCCCCCC)CCCCCCCC.[Cl-] + CCC(=O)O,viscosity,"298 K, 100 kPa, x1 = 0.5",650 mPa·s
CCCC[P+](CCCC)(CCCC)CCCC.[Cl-] + CCC(=O)O,viscosity,"298 K, 100 kPa, x1 = 0.5",140 mPa·s
CCCCCCC[N+](CCCCCCC)(CCCCCCC)CCCCCCC.[Br-] + CCCCCCCCCC(=O)O,viscosity,"318.15 K, 100 kPa, x1 = 0.333",205 mPa·s
CCCCC[N+](CCCCC)(CCCCC)CCCCC.[Br-] + CCCCCCCCCC(=O)O,viscosity,"318.15 K, 100 kPa, x1 = 0.333",178 mPa·s
CCCCCCCCn1cc[n+](C)c1C.F[P-](F)(F)(F)(F)F + CCCCCCCC[n+]1ccn(C)c1.F[P-](F)(F)(F)(F)F,viscosity,"303.15 K, 100 kPa, x2 = 0.5",440 mPa·s
same,viscosity,"313.15 K, 100 kPa, x2 = 0.5",241 mPa·s
same,viscosity,"323.15 K, 100 kPa, x2 = 0.5",144 mPa·s
CCCCCCCC[n+]1ccn(C)c1C.F[B-](F)(F)F + CCCCCCCC[n+]1ccn(C)c1.F[P-](F)(F)(F)(F)F,viscosity,"303.15 K, 100 kPa, x2 = 0.5",196 mPa·s
same,viscosity,"313.15 K, 100 kPa, x2 = 0.5",116 mPa·s
same,viscosity,"323.15 K, 100 kPa, x2 = 0.5",73.6 mPa·s
same,viscosity,"333.15 K, 100 kPa, x2 = 0.5",50.6 mPa·s
same,viscosity,"343.15 K, 100 kPa, x2 = 0.5",36.8 mPa·s
same,viscosity,"353.15 K, 100 kPa, x2 = 0.5",29.1 mPa·s
c1ccccc1 + CCCCCCCCn1cc[n+](C)c1.O=S(=O)([N-]S(=O)(=O)C(F)(F)F)C(F)(F)F,viscosity,"293 K, 101 kPa, x2 = 0",0.641 mPa·s
O=C([O-])C(F)(F)F.[Na+] + CCCCNC(N)=O,viscosity,"302.2 K, 101.3 kPa, x2 = 0.6576",324 mPa·s
same,viscosity,"305.5 K, 101.3 kPa, x2 = 0.6576",196 mPa·s
same,viscosity,"310.4 K, 101.3 kPa, x2 = 0.6576",96 mPa·s
same,viscosity,"311.4 K, 101.3 kPa, x2 = 0.6576",85 mPa·s
same,viscosity,"314.3 K, 101.3 kPa, x2 = 0.6576",54 mPa·s
same,viscosity,"317.5 K, 101.3 kPa, x2 = 0.6576",37 mPa·s
same,viscosity,"322.4 K, 101.3 kPa, x2 = 0.6576",21 mPa·s
CCCCCC(=O)O + CCCC[N+](CCCC)(CCCC)CCCC.[Cl-],viscosity,"298 K, 100 kPa, x2 = 0.5",320 mPa·s
CCCCCCCCCC(=O)O + CCCC[N+](CCCC)(CCCC)CCCC.[Cl-],viscosity,"298.15 K, 100 kPa, x2 = 0.333",372 mPa·s
same,viscosity,"328.15 K, 100 kPa, x2 = 0.333",73.2 mPa·s
same,viscosity,"358.15 K, 100 kPa, x2 = 0.333",22.2 mPa·s
O + CCCC[n+]1ccn(C)c1.F[B-](F)(F)F,electrical conductivity,"288.15 K, 100 kPa, x1 = 1",0.0217 S/m
same,electrical conductivity,"318.15 K, 100 kPa, x1 = 1",0.0402 S/m
CCCC[n+]1ccn(C)c1.F[P-](F)(F)(F)(F)F + CCCC[n+]1ccn(C)c1.O=S(=O)([N-]S(=O)(=O)C(F)(F)F)C(F)(F)F,viscosity,"313.15 K, 100 kPa, x1 = 0.25",36.48 mPa·s
same,viscosity,"313.15 K, 100 kPa, x1 = 0.75",73.2 mPa·s
CCCCn1cc[n+](C)c1.O=S(=O)([N-]S(=O)(=O)C(F)(F)F)c1ccc[cH-]1.[Fe+2].c1cc[cH-]c1 + CCCC[n+]1ccn(C)c1.O=S(=O)([N-]S(=O)(=O)C(F)(F)F)C(F)(F)F,viscosity,"298.15 K, 100 kPa, x2 = 0.461",1226.1 mPa·s
same,viscosity,"298.15 K, 100 kPa, x2 = 0.56",542.8 mPa·s
same,viscosity,"298.15 K, 100 kPa, x2 = 0.661",295.4 mPa·s
same,viscosity,"298.15 K, 100 kPa, x2 = 0.839",108.5 mPa·s
same,viscosity,"298.15 K, 100 kPa, x2 = 0.92",73.3 mPa·s
ClCCl + CCCC[n+]1ccn(C)c1.O=S(=O)([N-]S(=O)(=O)C(F)(F)F)C(F)(F)F,electrical conductivity,"296.35 K, 100 kPa, x2 = 0.0271",0.64 S/m
same,electrical conductivity,"296.35 K, 100 kPa, x2 = 0.039",0.79 S/m
same,electrical conductivity,"296.35 K, 100 kPa, x2 = 0.0623",1.1 S/m
same,electrical conductivity,"296.35 K, 100 kPa, x2 = 0.1129",1.32 S/m
same,electrical conductivity,"296.35 K, 100 kPa, x2 = 0.2144",1.58 S/m
Oc1cccnc1 + CCCC[n+]1ccn(C)c1.[Cl-],viscosity,"293.15 K, 100 kPa, x1 = 0.5",153.7 mPa·s
O=c1cc[nH]cc1 + CCCC[n+]1ccn(C)c1.[Cl-],viscosity,"293.15 K, 100 kPa, x1 = 0.333",302 mPa·s
same,viscosity,"293.15 K, 100 kPa, x1 = 0.5",261 mPa·s
[Cl][Al]([Cl])[Cl] + CCCC[n+]1ccn(C)c1.[Cl-],electrical conductivity,"306.15 K, 101 kPa, x2 = 0.5",1.29 S/m
same,electrical conductivity,"306.15 K, 101 kPa, x2 = 0.556",0.603 S/m
same,electrical conductivity,"306.15 K, 101 kPa, x2 = 0.588",0.373 S/m
CCCC[n+]1ccn(C)c1.O=S(=O)([N-]S(=O)(=O)C(F)(F)F)C(F)(F)F + CCCCn1cc[n+](C)c1.O=S(=O)([N-]S(=O)(=O)C(F)(F)F)c1ccc[cH-]1.[Fe+2].c1cc[cH-]c1,viscosity,"298.15 K, 100 kPa, x1 = 1",43.8 mPa·s
C=CC[n+]1ccn(C)c1.O=S(=O)([N-]S(=O)(=O)C(F)(F)F)C(F)(F)F + CCCO,viscosity,"298.15 K, 100 kPa, x1 = 0.1",3.31 mPa·s
same,viscosity,"298.15 K, 100 kPa, x1 = 0.3",6.61 mPa·s
same,viscosity,"298.15 K, 100 kPa, x1 = 0.4",8.51 mPa·s
same,viscosity,"298.15 K, 100 kPa, x1 = 0.6",13.42 mPa·s
same,viscosity,"298.15 K, 100 kPa, x1 = 1",34.3 mPa·s
CCCCCCCC/C=C\CCCCCCCC(=O)O + CC[N+](CC)(CC)CC.[Cl-],viscosity,"298 K, 100 kPa, x2 = 0.25",202.2 mPa·s
same,viscosity,"303.2 K, 100 kPa, x2 = 0.25",156.7 mPa·s
same,viscosity,"333.2 K, 100 kPa, x2 = 0.25",41.7 mPa·s
[Cl][Al]([Cl])[Cl] + CC[n+]1ccn(C)c1.[Cl-],speed of sound,"298.15 K, 100 kPa, x2 = 0.38",1411 m/s
same,speed of sound,"303.15 K, 100 kPa, x2 = 0.38",1404.5 m/s
same,electrical conductivity,"303.15 K, 101 kPa, x1 = 0.5",2.49 S/m
same,electrical conductivity,"303.15 K, 101 kPa, x1 = 0.57",2.12 S/m
same,electrical conductivity,"303.15 K, 101 kPa, x1 = 0.6",1.91 S/m
same,electrical conductivity,"303.15 K, 101 kPa, x1 = 0.67",1.63 S/m
same,electrical conductivity,"306.15 K, 101 kPa, x2 = 0.5",2.66 S/m
same,electrical conductivity,"306.15 K, 101 kPa, x2 = 0.588",0.982 S/m
same,electrical conductivity,"306.15 K, 101 kPa, x2 = 0.625",0.663 S/m
same,speed of sound,"313.15 K, 100 kPa, x2 = 0.38",1391.8 m/s
same,speed of sound,"318.15 K, 100 kPa, x2 = 0.38",1385.6 m/s
O=C(O)CC(=O)O + CC[n+]1ccn(C)c1.[Cl-],viscosity,"313.15 K, 101.3 kPa, x2 = 0.667",80.8 mPa·s
same,viscosity,"323.15 K, 101.3 kPa, x2 = 0.667",49.2 mPa·s
same,viscosity,"333.15 K, 101.3 kPa, x2 = 0.667",33.5 mPa·s
same,viscosity,"343.15 K, 101.3 kPa, x2 = 0.667",23.06 mPa·s
same,viscosity,"353.15 K, 101.3 kPa, x2 = 0.667",17.84 mPa·s
O=C[C@H](O)[C@@H](O)[C@H](O)[C@H](O)CO + CC[n+]1ccn(C)c1.[Cl-],viscosity,"373 K, 100 kPa, x1 = 0.0082",47 mPa·s
same,viscosity,"373 K, 100 kPa, x1 = 0.0829",82 mPa·s
same,viscosity,"373 K, 100 kPa, x1 = 0.1256",96 mPa·s
c1c[nH]cn1 + CC[n+]1ccn(C)c1.[Cl-],viscosity,"298.2 K, 100 kPa, x2 = 0.333",47.5 mPa·s
same,viscosity,"298.2 K, 100 kPa, x2 = 0.667",198 mPa·s
CCOS(=O)(=O)[O-].CC[n+]1ccn(C)c1 + CN1CCCC1=O,viscosity,"288.15 K, 100 kPa, x1 = 1",155.5 mPa·s
same,viscosity,"293.15 K, 100 kPa, x1 = 0.8821",80.25 mPa·s
same,viscosity,"298.15 K, 100 kPa, x1 = 0.596",27.95 mPa·s
same,viscosity,"318.15 K, 100 kPa, x1 = 0.3021",5.615 mPa·s
CCCC[n+]1ccn(C)c1.F[B-](F)(F)F + CO,electrical conductivity,"298.1 K, 101 kPa, x1 = 0.0155",0.884 S/m
same,electrical conductivity,"298.1 K, 101 kPa, x1 = 0.0244",1.16 S/m
CCCC[n+]1ccn(C)c1.O=S(=O)([N-]S(=O)(=O)C(F)(F)F)C(F)(F)F + CO,viscosity,"298 K, 100 kPa, x1 = 0.1",1.693 mPa·s
same,viscosity,"298 K, 100 kPa, x1 = 0.3834",8.225 mPa·s
same,viscosity,"298 K, 100 kPa, x1 = 0.4974",12.54 mPa·s
same,viscosity,"298 K, 100 kPa, x1 = 0.5875",16.78 mPa·s
same,viscosity,"298 K, 100 kPa, x1 = 0.7988",30.69 mPa·s
same,viscosity,"298 K, 100 kPa, x1 = 0.8995",38.93 mPa·s
CC[NH3+].O=[N+]([O-])[O-] + CO,viscosity,"293.15 K, 101 kPa, x2 = 0",44.9 mPa·s
same,viscosity,"293.15 K, 101 kPa, x2 = 0.4",13.8 mPa·s
